Experimental data from PMC4533973, “Synthesis and Evaluation of Chloramphenicol Homodimers: Molecular Target, Antimicrobial Activity, and Toxicity against Human Cells” (PLoS ONE, 2015).

Columns and labels:
E. coli (WT) = test: Antibacterial activity (growth inhibition, EC50); assay type: cell-based, Escherichia coli; settings: for EC50: Escherichia coli, LB medium, 37°C, OD560; for EC50(cell growth)/IC50(puro): wild-type E. coli, IC50(puro) calculated from Ki* at 2 mM puromycin
Description: (§1) A.S. Mankin (University of Illinois). E. coli ΔtolC strain BL21 DE3 with impaired AcrAB-TolC, a proton-dependent MDR efflux pump causing multidrug resistance, was offered by Dr D.N. Wilson (University of Munich) and included in our study to test if this mechanism of resistance affects the efficacy of CAM dimers. […] I. Spiliopoulou (National Reference Laboratory for Staphylococci, School of Medicine, University of Patras, Greece). Finally, E. coli strain Rosetta(DE3)pLysS, containing a chloramphenicol resistant gene in the pLysS plasmid, was purchased from Novagen and was also included in our study. Briefly, S. aureus or E. coli cells (200 μl of a 0.700 OD560 preculture) containing wild-type or mutant ribosomes were added in 3.8 ml of LB (Luria-Bertani) medium and grown at 37°C in the presence or absence of CAM or CAM dimers until the optical density of the control culture (grown in the absence of drug) reached the value 0.700 at 560 nm. For E. faecium and P. aeruginosa cultures, TSB (Tryptic Soy Broth) medium was used, instead of LB medium, in order to achieve exponential doubling times between 25 and 35 minutes. From dose-response curves, the half-maximal effective concentration (EC50) for each compound and strain was estimated. EC50 represents the molar concentration of a compound that produces 50% of the maximal possible effect. The EC50 values were mathematically determined by non linear regression fitting of the observed culture optical-density values, expressed as the percentage of 0.700 (y), into Hill Equation, y=min+max−min/1+(x/EC50)^−n where min and max are the lowest and highest observed values of the culture optical density, respectively, x the concentration of the tested compound, and n the Hill coefficient that represents the largest absolute value of the curve slope. EC50 is equal to the x- value of the sigmoid’s midpoint. Fitting was performed using the Four Parameter Logistic Curve of the SigmaPlot Program Version 11.0 (Systat Software, Inc) for Exact Graphs and Data Analysis.

E. coli (A2503C) = test: Antibacterial activity (growth inhibition, EC50); assay type: cell-based, Escherichia coli; settings: Escherichia coli
Description: as §1

E. coli (ΔtolC) = test: Antibacterial activity (growth inhibition, EC50); assay type: cell-based, Escherichia coli; settings: Escherichia coli, BL21-DE3
Description: as §1

E. coli (A2058G) = test: Antibacterial activity (growth inhibition, EC50); assay type: cell-based, Escherichia coli; settings: Escherichia coli
Description: as §1

[1] = system: E. coli Rosetta(DE3)pLysS; test: Antibacterial activity (growth inhibition, EC50); assay type: cell-based, Escherichia coli; settings: Escherichia coli
Description: as §1

MRSA (GRE2691) = test: Antibacterial activity (growth inhibition, EC50); assay type: cell-based; settings: Staphylococcus aureus, LB medium, 37°C, OD560, read-out: EC50
Description: as §1

MRSA (GRE2272) = test: Antibacterial activity (growth inhibition, EC50); assay type: cell-based; settings: Staphylococcus aureus, LB medium, 37°C, OD560, read-out: EC50
Description: as §1

E. faecium (GRE5152) = test: Antibacterial activity (growth inhibition, EC50); assay type: cell-based; settings: Enterococcus faecium; TSB medium, 37°C, OD560; read-out: EC50
Description: as §1

S. aureus (WT) = test: Antibacterial activity (growth inhibition, EC50); assay type: cell-based; settings: Staphylococcus aureus; LB medium, 37°C, OD560; read-out: EC50
Description: as §1

[2] = system: post-translocation ribosomal complex (complex C) derived from E. coli; test: Inhibition of peptide-bond formation (puromycin reaction, AcPhe-puromycin synthesis); assay type: biochemical; settings: for Ki: 25°C, buffer A; for k off: nonlinear regression of k eq; for activity compared to CAM: ranking by K i*; for k6 / k6/k7 / k7: S1 Table
Method: The inhibitory effect of CAM dimers on peptide-bond formation was studied using the puromycin reaction, a model reaction between puromycin and a post-translocation ribosomal complex (complex C) derived from E. coli. Since puromycin, a pseudo-substrate of PTase which binds to the A-site of the catalytic center, was present in excess, the reaction obeyed first-order kinetics. The first-order rate constant, k obs, at each concentration of puromycin was determined by fitting the x values into Eq 1, ln100/100−x=kobst (1) where x is the product AcPhe-puromycin, expressed as the percentage of complex C added in the reaction mixture, and t is the time of the reaction.
A representative time plot obtained at 400 μM puromycin, in the absence of inhibitor, is illustrated in Fig 3A (upper line) and, as expected, is characterized by linearity. However, when the reaction proceeded in the presence of a CAM dimer, e.g. compound 5, the time plots were characterized by two unique features that distinguish them from a typical kinetic behavior. […] Second, the slopes of both progress curves varied as a function of the inhibitor concentration (Fig 3A, four lower curves). […] These kinetic results are consistent with compound 5 operating through an induced fit mechanism (Fig 3C), in which the inhibitor first binds rapidly to complex C to form the encounter complex CI, which then undergoes a slow conformational change to produce a final, tighter complex C*I. Corroborative evidence for the consistency of this model is provided by the hyperbolic shape of the equilibration plots (k eq versus [I]), in which k eq represents the apparent rate constant for the attainment of equilibrium among C, CI, and C*I (Fig 3B). If one-step mechanism of inhibition was applicable (C + I ⇄ C*I), k eq should be a linear function of [I] [27]. […] Because the isomerization constant k on/k off was calculated to be 3.6, the inhibition process was finally associated with high overall inhibition of peptide-bond formation (Ki* = 0.3 μM; S1 Fig, panel C). In addition, the slow k off rate (0.64 min^-1) provided prolonged residence time for compound 5 at the ribosome, a behavior potentially predicting good efficacy in vivo [28].
The puromycin reaction, i.e. the reaction between complex C and excess puromycin (S), was carried out at 25°C in buffer A [100 mM Tris-HCl pH 7.2, 6 mM (CH3COO)2Mg, 100 mM NH4Cl and 6 mM 2-mercaptoethanol]. Under these conditions, the puromycin reaction obeys C + S ⇄KS CS→kcat C^′ + S pseudo-first-order kinetics and was analyzed as previously described.
In the presence of CAM dimers, biphasic semi-logarithmic time plots were obtained. The slope of the straight line through the origin was seen as the value of the apparent rate constant, k obs(early), at the early phase of the reaction. Similarly, the slope of the second straight line was taken as the apparent rate constant, k obs(late), at the late phase of the puromycin reaction.

P. aeruginosa (GRE5288) = test: Antibacterial activity (growth inhibition, EC50); assay type: cell-based, Pseudomonas aeruginosa; settings: Pseudomonas aeruginosa; TSB medium; clinical isolate with MexAB-OprM and MexXY efflux; read-out: EC50
Description: as §1

[3] = overall inhibition constant (CI + C*I)

| Structure (SMILES) | melting point | EC50 (E. coli (WT)) | EC50(cell growth)/IC50(puro) (E. coli (WT)) | EC50 (E. coli (A2503C)) | EC50 (E. coli (ΔtolC)) | EC50 (E. coli (A2058G)) | EC50 [1] | EC50 (MRSA (GRE2691)) | EC50 (MRSA (GRE2272)) | EC50 (E. faecium (GRE5152)) | EC50 (S. aureus (WT)) | Ki ([2]; encounter complex CI) | k off [2] | Ki [2, 3] | activity compared to CAM [2] | EC50 (P. aeruginosa (GRE5288)) | k6 [2] | k6/k7 [2] | k7 [2] |
| --- | --- | --- | --- | --- | --- | --- | --- | --- | --- | --- | --- | --- | --- | --- | --- | --- | --- | --- | --- |
| O=C(CCCCCCCC(=O)N[C@H](CO)[C@H](O)c1ccc([N+](=O)[O-])cc1)N[C@H](CO)[C@H](O)c1ccc([N+](=O)[O-])cc1 [Compound 7, N^1,N^9-Bis((1R,2R)-1,3-dihydroxy-1-(4-nitrophenyl)propan-2-yl)nonanediamide] | 137 to 139 °C | > 200 µM | >11.9 | > 200 µM | > 200 µM | > 200 µM | > 200 µM | > 200 µM | > 200 µM | > 200 µM | 72.7 ± 11.8 µM | 12000 ± 1200 nM | 0.84 ± 0.06 min⁻¹ | 2800 ± 270 nM | lower | > 100 µM |  |  |  |
| O=C(O)c1ccc(C(=O)N[C@H](CO)[C@H](O)c2ccc([N+](=O)[O-])cc2)cc1 [Compound 11, 4-(((1R,2R)-1,3-dihydroxy-1-(4-nitrophenyl)propan-2-yl)carbamoyl)benzoic acid] |  |  |  |  |  |  |  |  |  |  |  |  |  |  |  |  | 2.31 ± 0.48 min⁻¹ | 1.63 ± 0.31 | 1.42 ± 0.13 min⁻¹ |
| O=C(CCCCCCC(=O)N[C@H](CO)[C@H](O)c1ccc([N+](=O)[O-])cc1)N[C@H](CO)[C@H](O)c1ccc([N+](=O)[O-])cc1 [Compound 6, N^1,N^8-Bis((1R,2R)-1,3-dihydroxy-1-(4-nitrophenyl)propan-2-yl)octane-diamide] | 131 to 132 °C | > 200 µM | >14.5 | > 200 µM | > 200 µM | > 200 µM | > 200 µM | > 200 µM | > 200 µM | > 200 µM | 49.6 ± 5.4 µM | 10500 ± 900 nM | 0.80 ± 0.04 min⁻¹ | 2300 ± 200 nM | lower | > 100 µM |  |  |  |
| O=C(/C=C/C(=O)N[C@H](CO)[C@H](O)c1ccc([N+](=O)[O-])cc1)N[C@H](CO)[C@H](O)c1ccc([N+](=O)[O-])cc1 [Compound 2, N^1,N^4-Bis((1R,2R)-1,3-dihydroxy-1-(4-nitrophenyl)propan-2-yl)fumaramide] | 207 to 208 °C | > 200 µM | >44.4 | > 200 µM | > 200 µM | > 200 µM | > 200 µM | > 200 µM | > 200 µM | > 200 µM | 44.4 ± 2.9 µM | 2700 ± 250 nM | 0.70 ± 0.05 min⁻¹ | 750 ± 60 nM | comparable | > 100 µM |  |  |  |
| O=C(O)CCCCC(=O)N[C@H](CO)[C@H](O)c1ccc([N+](=O)[O-])cc1 [Compound 10, 6-(((1R,2R)-1,3-dihydroxy-1-(4-nitrophenyl)propan-2-yl)amino)-6-oxohexanoic acid] |  |  |  |  |  |  |  |  |  |  |  |  |  |  |  |  | 2.52 ± 0.40 min⁻¹ | 2.25 ± 0.27 | 1.11 ± 0.12 min⁻¹ |
| O=C(/C=C/c1ccc(/C=C/C(=O)N[C@H](CO)[C@H](O)c2ccc([N+](=O)[O-])cc2)cc1)N[C@H](CO)[C@H](O)c1ccc([N+](=O)[O-])cc1 [Compound 8, N,N^’-Bis((1R,2R)-1,3-dihydroxy-1-(4-nitrophenyl)propan-2-yl)-1,4-phenylene diacryldiamide] | 144 to 145 °C | > 200 µM |  | > 200 µM | > 200 µM | > 200 µM | > 200 µM | > 200 µM | > 200 µM | > 200 µM | > 200 µM |  |  |  | no activity | > 100 µM |  |  |  |
| O=C(CCCC(=O)N[C@H](CO)[C@H](O)c1ccc([N+](=O)[O-])cc1)N[C@H](CO)[C@H](O)c1ccc([N+](=O)[O-])cc1 [Compound 3, N^1,N^5-Bis((1R,2R)-1,3-dihydroxy-1-(4-nitrophenyl)propan-2-yl)glutaramide] |  | 52.4 ± 6.8 µM | 7.28 ± 1.08 | 68.1 ± 13.8 µM | 43.7 ± 5.2 µM | 47.3 ± 6.9 µM | 65.1 ± 6.6 µM | 27.2 ± 3.4 µM | 20.8 ± 2.5 µM | 69.8 ± 14.8 µM | 17.4 ± 1.3 µM | 4500 ± 360 nM | 1.00 ± 0.03 min⁻¹ | 1200 ± 90 nM | lower | 42.4 ± 8.7 µM |  |  |  |
| O=C(O)CCCC(=O)N[C@H](CO)[C@H](O)c1ccc([N+](=O)[O-])cc1 [Compound 9, 5-(((1R,2R)-1,3-dihydroxy-1-(4-nitrophenyl)propan-2-yl)amino)-5-oxopentanoic acid] |  |  |  |  |  |  |  |  |  |  |  |  |  |  |  |  | 2.50 ± 0.33 min⁻¹ | 1.53 ± 0.18 | 1.63 ± 0.12 min⁻¹ |
